Key:
Type in all cases: cell-based, Wistar rat
[1] = test system: cultured hippocampal tissue explants; test: Cell death induced by transfer to fresh culture medium in cultured hippocampal slices, propidium iodide fluorescence
Procedure: (§1) Seven day old Wistar rat pups were anaesthetized with fluothane, decapitated and transverse hippocampal slices (400 microns) were cultured for 12 days on 6-well tissue culture plates containing 1 ml of culture medium. The medium composition was 50% minimal essential medium (MEM), 25% horse serum, 25% Earl's balanced salt solution with D-glucose and HEPES, penicillin G and streptomycin sulfate, 5000 units/ml and 5 μg/ml respectively and the pH, 7.15. Slices were cultured at 36.5° C., 100% humidity, 95% air and 5% CO2 atmosphere, and were fed twice weekly by 50% medium exchange. All drugs were dissolved in water or dimethylsulfoxide (DMSO, final concentration was 0.1%) to make stock solutions. Controls for DMSO effects were performed where appropriate. To apply a drug, the stock solution was dissolved in 1 ml of fresh culture medium to make a desired concentration. Then, hippocampal slices were transferred for a specified time interval to the fresh medium containing the drug. To terminate the drug action, slices were again transferred to a fresh medium containing 2 mg/ml propidium iodide (PI). The medium temperature was kept at 36° C. during the transfers. Since the change of medium induced nerve cell death, control experiments were performed by transferring hippocampal slices an equal number of times into the fresh medium with the intervals between transfers equal to the time interval that slices were exposed to the drug. In a separate series of experiments the medium replacement was performed twice with a 30 minute interval in order to induce cell death. Cell death was measured as the PI fluorescence intensity by using MRC-600 Laser Scanning Confocal Imaging System. PI was added to the medium 30 minutes prior to taking control images (immediately before the drug treatment). […] Each experiment was performed at least in triplicate, on 5-6 slices each time and data expressed as an average of all experiments. Cell death index was derived from PI fluorescence intensity normalized to the intensity values obtained after the 48 hour exposure of slices to an ambient temperature of 4° C. […]

[2] = test system: cultured hippocampal tissue explants; test: NMDA-induced cell death in cultured hippocampal slices, propidium iodide fluorescence; details: for number of dead cells lower than in explants treated with NMDA alone: staurosporine 0.2 μM; for neuroprotection to nerve cells, as described in Example 1: PD098059 about 30-90 μM, apigenin about 25-100 μM; for reduction of NMDA toxicity: treated 2 hours prior to NMDA 50 μM, PD098059 30-90 μM, wortmannin 1-5 μM, FIG. 2-4
[3] = test system: cultured hippocampal tissue explants; test: Cell death induced by amyloid β-protein fragment 25-35 in cultured hippocampal slices; details: 30-90 μM for 2 hours prior to the addition of toxic peptides
Procedure: as §1, with “To terminate the drug action, slices were again transferred to a fresh medium containing 2 mg/ml propidium iodide (PI). The medium temperature was kept at 36° C. during the transfers. Since the change of medium induced nerve cell death, control experiments were performed by transferring hippocampal slices an equal number of times into the fresh medium with the intervals between transfers equal to the time interval that slices were exposed to the drug. In a separate series of experiments the medium replacement was performed twice with a 30 minute interval in order to induce cell death.” left out, “System.” for “System. PI was added to the medium 30 minutes prior to taking control images (immediately before the drug treatment).”

[4] = 24 hours after NMDA exposure, FIG. 5

NC(CCCP(=O)(O)O)C(=O)O (stereo not shown) [AP5]
block of the increase in cell death caused by transfers to fresh medium ([1]; AP5 20 μM, CA1-CA4 and dentate gyrus): not blocked

CN[C@H](CC(=O)O)C(=O)O [NMDA, N-methyl-D-aspartate]
cells killed, relative to 4° C. exposure taken as 100% of cells ([2]; 50 μM NMDA, 30 minutes exposure): approximately 30% | cell death in the dentate gyrus ([2]; NMDA 2.5-500 μM): did not induce concentration-dependent increase in cell death | cell death in the CA1-CA4 region of the hippocampus ([2]; NMDA 2.5-500 μM for 30 minutes): marked cell death

COc1cccc(-c2cc(=O)c3ccccc3o2)c1N [PD098059, 2-(2′-amino-3′methoxyphenyl)-oxanaphthalen-4-one]
cell death induced by toxic amyloid peptides [3]: prevented cell death | number of dead cells lower than in explants treated with staurosporine [2, 4]: 33% | number of dead cells lower than in explants treated with NMDA alone [2, 4]: 95% | neuroprotection to nerve cells, as described in Example 1 [2]: effective in providing neuroprotection | reduction of NMDA-induced cell death ([2]; applied immediately after NMDA): effective in reducing NMDA-induced cell death | reduction of NMDA toxicity [2]: significantly reduced NMDA toxicity | cell death after exposure to fresh medium at 24 hours ([1]; 24 hours, PD098059 30-90 μM for 2 hours prior, wortmannin 1 μM, FIG. 6): significantly reduced cell death | cell death after exposure to fresh medium at 72 hours ([1]; 72 hours, PD098059 30-90 μM for 2 hours prior, wortmannin 1 μM, FIG. 6): significantly reduced cell death

O=c1cc(-c2ccc(O)cc2)oc2cc(O)cc(O)c12 [apigenin]
neuroprotection to nerve cells, as described in Example 1 [2]: effective in providing neuroprotection

N[C@H](CCCP(=O)(O)O)C(=O)O [d-APV]
block of NMDA-induced cell death ([2]; slices exposed to NMDA for 30 minutes): could be blocked

CN[C@@H]1C[C@H]2O[C@@](C)([C@@H]1OC)n1c3ccccc3c3c4c(c5c6ccccc6n2c5c31)C(=O)NC4 [staurosporine]
number of dead cells lower than in explants treated with NMDA alone [2, 4]: 45% | reduction of NMDA toxicity [2]: somewhat effective
